{"source": "patent US20240025883A1", "about": "“PYRIMIDIN-2-YL SULFONAMIDE DERIVATIVES” (Hoffmann-La Roche Inc., priority 2021, published 2024)", "key": {"[1]": {"experiment": "Microsome clearance assay, rat", "conditions": "microsomes", "experimental": "(§1) Incubations at a test compound of 1 mM in microsomes (0.5 mg/mL) plus cofactor NADPH are performed in 96 well plates at 37° C. on a TECAN (Tecan Group Ltd, Switzerland) automated liquid handling system. The final concentration of the test compound in the incubation is 1 microM. After a 10 minutes preincubation step of the test compound with the microsomes, the enzymatic reaction is started by the addition of cofactors. At 1, 3, 6, 9, 15, 25, 35 and 45 minutes, aliquots of the incubations are removed and quenched with 1:3 (v/v) acetonitrile containing internal standards. Samples are then cooled and centrifuged before analysis of the supernatant by LC-MS/MS."}, "[2]": {"target": "human GPR17 short isoform (Homo sapiens (Human), UniProt Q13304)", "sequence (Q13304 29-367)": "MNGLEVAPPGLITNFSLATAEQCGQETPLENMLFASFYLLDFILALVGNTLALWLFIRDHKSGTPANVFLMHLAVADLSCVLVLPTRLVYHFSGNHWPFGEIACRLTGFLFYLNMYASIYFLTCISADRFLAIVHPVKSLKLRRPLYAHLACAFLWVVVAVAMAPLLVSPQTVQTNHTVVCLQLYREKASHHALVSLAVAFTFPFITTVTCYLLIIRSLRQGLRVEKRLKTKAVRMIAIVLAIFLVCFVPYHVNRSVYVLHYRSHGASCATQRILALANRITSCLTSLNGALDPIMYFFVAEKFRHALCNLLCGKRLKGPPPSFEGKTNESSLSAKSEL", "experiment": "GPR17 cAMP assay (hGPR17 cAMP, antagonist mode against EC80 of MDL29,951)", "assay_type": "cell-based", "conditions": "CHO-K1 cells stably expressing human GPR17 short isoform; EC80 of agonist MDL29,951; forskolin 15 μM", "in_short": "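cAMP was read by competitive TR-FRET after a 30 min room-temperature stimulation: antagonists plus EC80 MDL29,951 and 0.5 mM IBMX, followed 5 min later by 15 μM forskolin. Cells were CHO-K1 with stable human GPR17 short isoform in HBSS/HEPES/BSA, pH 7.4; percent activity versus reference antagonist fitted sigmoidally.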"}, "[3]": {"experiment": "Microsome clearance assay, human", "conditions": "microsomes", "experimental": "as §1"}, "[4]": {"experiment": "Microsome clearance assay, mouse", "conditions": "microsomes", "experimental": "as §1"}, "[5]": {"conditions": "microsomes, 1 µM", "experimental": "as §1"}, "[6]": {"conditions": "microsomes, 1 µM", "remark": "listed apart in the source", "experimental": "as §1"}, "[7]": {"conditions": "microsomes, 1 µM", "remark": "listed apart in the source", "experimental": "as §1"}}}
{"molecule": "COc1nc(NS(=O)(=O)c2c[nH]c3c(F)c(Cl)ccc23)ncc1OCC(F)F", "note": "[Example 123, 6-chloro-N-[5-(2,2-difluoroethoxy)-4-methoxy-pyrimidin-2-yl]-7-fluoro-1H-indole-3-sulfonamide]", "values": [{"measurement": "microsomal CLint at 1 µM", "setting": "[1]", "result": 10, "unit": "µL/min/mg"}, {"measurement": "IC50", "setting": "[2]", "result": 0.091, "unit": "µM"}, {"measurement": "microsomal CLint at 1 µM", "setting": "[3]", "result": 10, "unit": "µL/min/mg"}, {"measurement": "microsomal CLint at 1 µM", "setting": "[4]", "result": 10, "unit": "µL/min/mg"}]}
{"molecule": "COc1nc(NS(=O)(=O)c2c[nH]c3cc(Cl)ccc23)ncc1CCC#N", "note": "[Example 179, 6-chloro-N-[5-(2-cyanoethyl)-4-methoxy-pyrimidin-2-yl]-1H-indole-3-sulfonamide]", "values": [{"measurement": "microsomal CLint at 1 µM", "setting": "[1]", "result": 33, "unit": "µL/min/mg"}, {"measurement": "IC50", "setting": "[2]", "result": 0.031, "unit": "µM"}, {"measurement": "microsomal CLint at 1 µM", "setting": "[3]", "result": 10, "unit": "µL/min/mg"}, {"measurement": "microsomal CLint at 1 µM", "setting": "[4]", "result": 10, "unit": "µL/min/mg"}]}
{"molecule": "N-(4-bromo-2-fluoro-5-methoxy-phenyl)-6-chloro-1H-indole-3-sulfonamide [RE-F]", "values": [{"measurement": "Microsomal Clearance rat", "setting": "[5]", "result": 166, "unit": "μL/min/mg protein"}, {"measurement": "Microsomal Clearance mouse", "setting": "[6]", "result": 129, "unit": "μL/min/mg protein"}, {"measurement": "Microsomal Clearance human", "setting": "[7]", "result": 29, "unit": "μL/min/mg protein"}]}
